Assays:
[1] = system: CDKN1B (cyclin-dependent kinase inhibitor 1B); test: CDKN1B upregulation and cell cycle arrest with minimal NC5 variants in HEK293T cells; format: cell-based, human; details: cells with minimal NC5 receptor variant and sgCDKN1B
Excerpt: Minimal NC5 receptor variants were used to elicit Delta-dependent arrest of the cell cycle (FIG. 39A). CDKN1B (cyclin-dependent kinase inhibitor 1B) was targeted in HEK293T cells with sgRNAs (sgCDKN1B). CDKN1B overexpression leads to cellular arrest at the G0/G1 phase (FIG. 39B). […] The Delta-induced CDKN1B upregulation and G0/G1 arrest in cells was abrogated with DAPT (FIGS. 39E and 39F).

[2] = system: GFP reporter; test: GFP reporter activation by chimeric GPCR-dCas9-VPR receptors in HEK293T cells; format: cell-based, human; details: sgRNA and β2-arrestin-protease; presence of ligand (LPA, SDF1, or CNO) compared to absence of ligand
Excerpt: The released dCas9-VPR was then targeted by sgRNA to a target polynucleotide to alter expression levels of a GFP reporter.

[3] = system: luciferase reporter gene; test: Luciferase reporter activation by chimeric CXCR4-dCas9-VPR in HEK293 cells; format: cell-based, human
Excerpt: FIGS. 23A and 23B show the results from three independent experiments testing the activity of a chimeric CXCR4-dCas9-VPR-mCherry 2301 in host cells, e.g., HEK293 cells. After ligand binding 2311, the β2-arrestin-protease was recruited to the activated receptor and the protease released the dCas9-VPR-mCherry from the receptor 2321. The expression construct for the β2-arrestin-protease is shown as 2351. The reporter construct is shown in 2341. In each experiment, the dCas9-VPR was paired with a single guide RNA (sgRNA) that specifically activates luciferase expression, which in turn generates luminescence. In this experiment a sgRNA-BFP was used 2331. In some experiments, a scFv-mCherry-VPR 2305 and/or a dCas9-10×GCN4 2307 was used as a control.
The CXCR4-dCas9-VPR-mCherry 2361 was conditionally expressed from a doxycycline-inducible promoter (TRE3G), such that only addition of doxycycline (Dox) and the presence of a co-activator can trigger expression of the recombinant receptor. Without Dox, there is no luminescence (FIG. 23B). […] Upon Dox addition, chimeric CXCR4-dCas9 was expressed, and luminescence was detected. […] Chimeric GPCR-dCas9 proteins described herein can be expressed in immune cells such as T cells and macrophages. Also, chemotactic experiments can be performed to determine if CXCL12 can serves as a chemoattractant to T cells expressing the chimeric GPCR-dCas9 proteins. […]

[4] = system: UAS promoter controlling H2B-citrine reporter gene; test: Delta-dependent H2B-citrine reporter activation in CHO UAS-H2B cells with sgUAS; format: cell-based, Chinese hamster
Protocol: A fusion construct, NC1, was created by replacing the NICD from human NOTCH1 with the Streptococcus pyogenes dCas9 fused to a tripartite activation domain (VP64, p65, and Rta) (FIG. 31B) with three copies of a nuclear localization signal (NLS) sequence. The construct was fluorescently tagged with mCherry to determine its subcellular distribution. Next, it was determined how the NC1 fusion construct responded to extracellular Delta ligands when transfected in mammalian cells. A Chinese hamster ovary (CHO) reporter cell line was used that was previously developed to dissect Notch-Delta signaling (Sprinzak, D. et al. Cis-interactions between Notch and Delta generate mutually exclusive signalling states. Nature 465, 86-90, doi:10.1038/nature08959 (2010)). The CHO cell line contained an inducible UAS (upstream activating sequence) promoter controlling the citrine (YFP)-tagged reporter gene, histone 2B (H2B). sgRNAs (sgUAS) were stably expressed via lentiviral transduction that allow cleaved dCas9 to bind to the UAS promoter (see Table 6). […] By imaging the fluorescence of nucleus-bound H2B-citrine, it was determined whether NC1 induced H2B expression upon exposure to surface-adsorbed Delta (FIG. 31C). […]
(§1) Cells were trypsinized and analyzed for reporter fluorescence or protein immunofluorescence using a Scanford FACScan analyzer (Becton Dickinson) and standard protocols. […]

[5] = system: tet-inducible EGFP gene; test: EGFP activation in HEK293T tet-inducible EGFP sgTET reporter cells on immobilized Delta; format: cell-based, human; details: cells cultured without Delta, and DAPT-treated cells with the highest Delta concentration, 3 days
Protocol: Activation of NC5 receptors by immobilized Delta ligand leads to cleavage and nuclear translocation of dCas9-VPR. dCas9-VPR complexed with a sequence-specific sgRNA (e.g., sgTET) allows for binding of the complex to the (e.g., TET) promoter and activation of EGFP gene (FIG. 31G). […] Cells transfected with dCas9-VPR or NC5 receptor (with or without the γ-secretase inhibitor, DAPT) were cultured with or without immbolized Delta for 3 days. Percentage of activated cells (ON %) is also indicated. Cells are considered ON above the basal intensity of all cells with no construct. […] Mean fold change compared to DAPT-treated condition is indicated.
Surface adsorption of Delta: Experiments described in this example were performed with cells plated on 24- or 48-well plates (Corning) at 1.5×10^4 cells/mL. […] For experiments with CHO cells, 5 μg/mL of hamster fibronectin (Innovative Research) was also adsorbed together with Delta.
Cells were trypsinized and analyzed for reporter fluorescence or protein immunofluorescence using a Scanford FACScan analyzer (Becton Dickinson) and standard protocols. For intracellular proteins, cells were trypsinized and fixed in 4% paraformaldehyde solution for 15 minutes, were incubated for 2 h at room temperature with the appropriate primary antibody in a solution of 0.3% Triton-X 100 (Sigma) with 2% normal donkey serum (Thermo Fisher) in PBS. […]

[6] = system: cyclin-dependent kinase inhibitor 1B (CDKN1B); test: Delta-dependent CDKN1B upregulation and G0/G1 arrest in HEK293 sgCDKN1B cells; format: cell-based, human
Excerpt: Combining the ability to route native extracellular signals with the discriminatory power of sgRNA-mediated Cas9 binding to virtually any genomic target opens up an exponential amount of signaling pathways and functions (FIG. 32A). The Notch chimeric receptors disclosed herein were used to elicit a novel Delta-dependent arrest of the cell-division cycle. HEK293 cells were stably transduced with lentivirus-packaged sgRNAs that specifically target cyclin-dependent kinase inhibitor 1B (CDKN1B), an endogenous regulator of the cell cycle. […] NC5 was transfected into HEK293 cells stably expressing sgRNAs for CDKN1B (sgCDKN1B) and the cells were subsequently introduced onto bare or Delta-containing surfaces. […] 38% of Delta-exposed, NC5-transfected, and sgCDKN1B^+ cells were determined to be sequestered at the G0/G1 phase, and only 2-16% of cells in all other conditions tested. […]
as §1

[7] = system: 12xCSL promoter H2B-citrine reporter; test: H2B-citrine reporter driven by 12xCSL promoter in CHO cells with sasgCSL; format: cell-based, Chinese hamster; details: with S. aureus-specific sgRNA (sasgCSL)
Excerpt: Chimera modularity was further explored by testing another Cas9 ortholog in a similar reporter assay (H2B-citrine driven by a 12×CSL promoter that also allows wild-type NICD to bind). A Staphylococcus aureus dCas9 was introduced in the NC5 design. This resulting S. au.
All cell lines used in FIGS. 31A-31F were based on the cell line T-Rex-CHO-K1 (Invitrogen). Stable cell clones of UAS-H2B-citrine and 12×CSL-H2B-citrine were obtained. Additional cell lines were generated from lentiviral transduction (of all sgRNAs and SV40-EGFP) or plasmid transfection using TransIT-LT1 reagent (Minis Bio) per manufacturer's instructions, followed by appropriate antibiotic selection and maintenance. Stably transfected clones expressing NC5 and sgUAS in the UAS-H2B-citrine line were isolated by FACS, after 2 weeks of puromycin and geneticin selection. All CHO cell lines were grown in Alpha MEM with Earle's Salts (Irvine Scientific) supplemented with 10% Tet System Approved FBS (Clontech), 100 U/mL of penicillin and streptomycin, 2 mM L-glutamine (Gibco) and 10 μg/mL blasticidin (VWR International) at 37° C. with 5% CO2 in a humidified incubator.
Surface adsorption of Delta: Experiments described in this example were performed with cells plated on 24- or 48-well plates (Corning) at 1.5×10^4 cells/mL. […]

[8] = system: pTET-EGFP reporter; test: EGFP reporter activation by dCas9-VPR iNLS variants in HEK293 pTET-EGFP sgTET cells; format: cell-based, human
Excerpt: Cas9 found at amino acid residues 647-670. […] Representative histograms of EGFP activation in the presence or absence (bottom) of constructs and quantification of EGFP activation (normalized to untransfected cells) is shown (SEQ ID NO: 31, 32). […] FIGS. 35C and 35D show visually by microscopy and quantitatively that adding a synthetic NLS to the N-terminus of iNLS-mutated dCas9-VPR partially restores EGFP activation.
Cas9. This iNLS sequence ([…] (SEQ ID NO: 31)) of amino-acid residues was mapped to a helix-linker-helix motif in the crystal structure of S. py. Cas9. […] Mutating 6 arginine or lysine residues of the iNLS to alanines ([…] (SEQ ID NO: 32)) in a dCas9-VPR-mCherry construct impaired EGFP activation (from 18-fold down to 4-fold) in HEK293 reporter cells. […] Disrupting this iNLS motif by mutating arginine and lysine residues to alanines […] […] Representative histograms of EGFP reporter are shown to the right; percentage of cells considered ‘ON’ had reporter intensities above untransfected ‘OFF’ cells.

## C[C@H](NC(=O)Cc1cc(F)cc(F)c1)C(=O)N[C@H](C(=O)OC(C)(C)C)c1ccccc1 [DAPT]
[1]
  Delta-induced CDKN1B upregulation and G0/G1 arrest: abrogated

## CXCR4-dCas9-VPR: CXCR4-V2 tail-TEV cleavage site-dCas9-VPR-NLS-mCherry, SEQ ID NO:3
[2]
  levels of GFP reporter protein: increased levels of GFP reporter protein
[3]; HEK293 cells, sgRNA activating luciferase, receptor induced with doxycycline
  luminescence (luciferase reporter): sensitive to increasing concentrations of the CXCR4 ligand, CXCL12
[3]; sgTET, TetO promoter, β2-arrestin-protease
  transcription of luciferase gene: regulated by CXCL2 binding

## NC5: hNECD-dCas9-VPR-mCherry with LMAN1 MMS sequence at the C-terminus, no synthetic NLS
[4]; CHO reporter cells with NC5 and sgUAS stably integrated, single clone
  H2B activation in response to Delta: Three-fold
[4]; transfected CHO UAS-H2B-citrine sgUAS cells, bare or Delta-coated surface, 4 days
  H2B expression with or without Delta: exhibited Delta-dependent activation of H2B
[5]
  EGFP activation: did not activate EGFP
[6]; 4 days on Delta, compared to bare-surface, untransfected controls
  upregulation of CDKN1B: > 2 fold
[6]; Delta-exposed, NC5-transfected, sgCDKN1B+ cells
  cells sequestered at the G0/G1 phase: 38%

## S. au. NC5 dCas9 variant: NC5 design with Staphylococcus aureus dCas9
[7]
  Delta-dependent activation levels of H2B-citrine: exhibited Delta-dependent activation levels similar to wild-type human NOTCH1

## mutated-iNLS variant: dCas9-VPR-mCherry with 6 arginine or lysine residues of the iNLS mutated to alanines (SEQ ID NO: 32) (VMAQLKAAAYTGWGRLSAALINGI)
[8]; HEK293T cells, confocal microscopy
  nuclear localization and EGFP reporter activation: severely impaired nuclear localization and EGFP reporter activation
[8]; HEK293 reporter cells
  percentage of cells that activate EGFP: ~16%
[8]; HEK293 reporter cells, normalized to untransfected cells
  EGFP activation: 4 fold
[8]; synthetic NLS added back to the N-terminus
  EGFP activation: partially restored EGFP activation
